# According to patent US20210017295A1, “BISPECIFIC BINDING AGENTS AND USES THEREOF” (MEMORIAL SLOAN KETTERING CANCER CENTER, priority 2018, published 2021):
# Read-outs that look alike come from different tables or passages of the source.
# Tested on: s.c. HER2(+) BT-474 tumors
# Type: in vivo, mouse
# [1] = PRIT, CA 28% w/w 70 μg, 24 h p.i., mean ± SD
# [2] = no PRIT, only ~16.8 MBq (90 pmol), 24 h p.i., mean ± SEM
# [3] = optimized PRIT, 1.0 h p.i., mean ± SEM
# [4] = optimized PRIT, 24 h p.i., mean ± SEM
# [5] = optimized PRIT, 96 h p.i., mean ± SEM
# [6] = optimized PRIT, 336 h p.i., mean ± SEM
# [7] = optimized PRIT, […] p.i., mean ± SEM
smiles,measurement,setting,value
Nc1ccc(CC2CN(CC(=O)[O-])CCN(CC(=O)[O-])CCN(CC(=O)[O-])CCN2CC(=O)[O-])cc1.[177Lu+3] (centres unmarked) [^177Lu-DOTA-Bn],^177Lu activity in Kidneys,[1],0.75 ± 0.08 % IA/g
same,^177Lu activity in Large Int.,[1],0.19 ± 0.04 % IA/g
same,^177Lu activity in Liver,[1],0.33 ± 0.02 % IA/g
same,^177Lu activity in Lungs,[1],0.25 ± 0.05 % IA/g
same,^177Lu activity in Muscle,[1],0.08 ± 0.02 % IA/g
same,^177Lu activity in Small Int.,[1],0.07 ± 0.01 % IA/g
same,^177Lu activity in Spleen,[1],0.73 ± 0.18 % IA/g
same,^177Lu activity in Stomach,[1],0.05 ± 0.02 % IA/g
same,^177Lu activity in Tumor,[1],6.98 ± 3.15 % IA/g
same,^177Lu activity in Blood,[2],0.002±0.00 % IA/g
same,^177Lu activity in Kidneys,[2],0.38±0.01 % IA/g
same,^177Lu activity in Liver,[2],0.04 ± 0.01 % IA/g
same,^177Lu activity in Spleen,[2],0.02 ± 0.00 % IA/g
same,^177Lu activity in Tumor,[2],0.07±0.01 % IA/g
same,"^177Lu activity in tumor, range","optimized PRIT, 1-24 h p.i.",5-8 % IA/g
same,"Tumor-to-tissue ratio, Blood",[3],10.7 ± 1.3
same,"Tumor-to-tissue ratio, Bone",[3],37.3 ± 6.0
same,"Tumor-to-tissue ratio, Heart",[3],38.7 ± 6.7
same,"Tumor-to-tissue ratio, Kidneys",[3],5.7 ± 0.5
same,"Tumor-to-tissue ratio, Large Int.",[3],3.0 ± 0.5
same,"Tumor-to-tissue ratio, Liver",[3],8.7 ± 0.9
same,"Tumor-to-tissue ratio, Lungs",[3],16.6 ± 2.3
same,"Tumor-to-tissue ratio, Muscle",[3],35.7 ± 3.6
same,"Tumor-to-tissue ratio, Small Int.",[3],6.0 ± 1.5
same,"Tumor-to-tissue ratio, Spleen",[3],44.9 ± 6.3
same,"Tumor-to-tissue ratio, Stomach",[3],17.8 ± 4.6
same,^177Lu activity in Blood,[3],0.62 ± 0.06 % IA/g
same,^177Lu activity in Bone,[3],0.18 ± 0.03 % IA/g
same,^177Lu activity in Heart,[3],0.17 ± 0.03 % IA/g
same,^177Lu activity in Kidneys,[3],1.17 ± 0.02 % IA/g
same,^177Lu activity in Large Int.,[3],2.22 ± 0.37 % IA/g
same,^177Lu activity in Liver,[3],0.76 ± 0.06 % IA/g
same,^177Lu activity in Lungs,[3],0.40 ± 0.05 % IA/g
same,^177Lu activity in Muscle,[3],0.19 ± 0.01 % IA/g
same,^177Lu activity in Small Int.,[3],1.11 ± 0.27 % IA/g
same,^177Lu activity in Spleen,[3],0.15 ± 0.02 % IA/g
same,^177Lu activity in Stomach,[3],0.37 ± 0.09 % IA/g
same,^177Lu activity in Tumor,[3],6.65 ± 0.46 % IA/g
same,"Tumor-to-tissue ratio, Blood",[4],26.7±9.0
same,"Tumor-to-tissue ratio, Bone",[4],189.6 ± 46.7
same,"Tumor-to-tissue ratio, Heart",[4],105.3 ± 27.7
same,"Tumor-to-tissue ratio, Kidneys",[4],10.4±1.3
same,"Tumor-to-tissue ratio, Large Int.",[4],41.7 ± 5.4
same,"Tumor-to-tissue ratio, Liver",[4],28.3 ± 8.3
same,"Tumor-to-tissue ratio, Lungs",[4],38.7 ± 10.0
same,"Tumor-to-tissue ratio, Muscle",[4],118.5 ± 26.8
same,"Tumor-to-tissue ratio, Small Int.",[4],140.4 ± 22.8
same,"Tumor-to-tissue ratio, Spleen",[4],12.6 ± 4.5
same,"Tumor-to-tissue ratio, Stomach",[4],122.3 ± 17.1
same,"Tumor-to-tissue ratio, Blood",[5],63.6 ± 12.2
same,"Tumor-to-tissue ratio, Bone",[5],6.0 ± 1.7
same,"Tumor-to-tissue ratio, Heart",[5],42.4 ± 10.3
same,"Tumor-to-tissue ratio, Kidneys",[5],8.4 ± 1.7
same,"Tumor-to-tissue ratio, Large Int.",[5],31.8 ± 8.6
same,"Tumor-to-tissue ratio, Liver",[5],10.1 ± 2.6
same,"Tumor-to-tissue ratio, Lungs",[5],34.7 ± 8.8
same,"Tumor-to-tissue ratio, Muscle",[5],22.5 ± 8.7
same,"Tumor-to-tissue ratio, Small Int.",[5],44.0 ± 12.6
same,"Tumor-to-tissue ratio, Spleen",[5],12.9 ± 2.9
same,"Tumor-to-tissue ratio, Stomach",[5],57.3 ± 13.7
same,^177Lu activity in Blood,[5],0.04 ± 0.00 % IA/g
same,^177Lu activity in Bone,[5],0.38 ± 0.09 % IA/g
same,^177Lu activity in Heart,[5],0.05 ± 0.01 % IA/g
same,^177Lu activity in Kidneys,[5],0.27 ± 0.03 % IA/g
same,^177Lu activity in Large Int.,[5],0.07 ± 0.01 % IA/g
same,^177Lu activity in Liver,[5],0.23 ± 0.04 % IA/g
same,^177Lu activity in Lungs,[5],0.07 ± 0.01 % IA/g
same,^177Lu activity in Muscle,[5],0.10 ± 0.03 % IA/g
same,^177Lu activity in Small Int.,[5],0.05 ± 0.01 % IA/g
same,^177Lu activity in Spleen,[5],0.18 ± 0.02 % IA/g
same,^177Lu activity in Stomach,[5],0.04 ± 0.01 % IA/g
same,^177Lu activity in Tumor,[5],2.29±0.41 % IA/g
same,"Tumor-to-tissue ratio, Blood",[6],160.8 ± 30.3
same,"Tumor-to-tissue ratio, Bone",[6],10.0 ± 3.6
same,"Tumor-to-tissue ratio, Heart",[6],37.8 ± 7.7
same,"Tumor-to-tissue ratio, Kidneys",[6],3.8 ± 0.9
same,"Tumor-to-tissue ratio, Large Int.",[6],75.6 ± 26.4
same,"Tumor-to-tissue ratio, Liver",[6],3.7 ± 1.0
same,"Tumor-to-tissue ratio, Lungs",[6],29.2 ± 8.2
same,"Tumor-to-tissue ratio, Muscle",[6],64.3 ± 18.4
same,"Tumor-to-tissue ratio, Small Int.",[6],116.9 ± 30.0
same,"Tumor-to-tissue ratio, Spleen",[6],3.5 ± 0.9
same,"Tumor-to-tissue ratio, Stomach",[6],51.4 ± 12.4
same,^177Lu activity in Blood,[6],0.002 ± 0.00 % IA/g
same,^177Lu activity in Bone,[6],0.03 ± 0.01 % IA/g
same,^177Lu activity in Heart,[6],0.01 ± 0.00 % IA/g
same,^177Lu activity in Kidneys,[6],0.08 ± 0.01 % IA/g
same,^177Lu activity in Large Int.,[6],0.004 ± 0.00 % IA/g
same,^177Lu activity in Liver,[6],0.09 ± 0.02 % IA/g
same,^177Lu activity in Lungs,[6],0.01 ± 0.00 % IA/g
same,^177Lu activity in Muscle,[6],0.01 ± 0.00 % IA/g
same,^177Lu activity in Small Int.,[6],0.003 ± 0.00 % IA/g
same,^177Lu activity in Spleen,[6],0.09 ± 0.02 % IA/g
same,^177Lu activity in Stomach,[6],0.01 ± 0.00 % IA/g
same,^177Lu activity in Tumor,[6],0.32±0.06 % IA/g
same,approximate tumor clearance half-life,"optimized PRIT, R^2=0.894",~38.6 h
same,"Tumor-to-tissue ratio, Blood",[7],12.1 ± 1.5
same,"Tumor-to-tissue ratio, Bone",[7],37.5 ± 4.3
same,"Tumor-to-tissue ratio, Heart",[7],37.5 ± 5.2
same,"Tumor-to-tissue ratio, Kidneys",[7],5.2 ± 0.5
same,"Tumor-to-tissue ratio, Large Int.",[7],1.6 ± 0.3
same,"Tumor-to-tissue ratio, Liver",[7],12.6 ± 1.6
same,"Tumor-to-tissue ratio, Lungs",[7],13.5 ± 1.6
same,"Tumor-to-tissue ratio, Muscle",[7],25.8 ± 5.1
same,"Tumor-to-tissue ratio, Small Int.",[7],10.6 ± 3.7
same,"Tumor-to-tissue ratio, Spleen",[7],14.9 ± 1.8
same,"Tumor-to-tissue ratio, Stomach",[7],23.6 ± 7.7
same,^177Lu activity in Blood,[7],0.41 ± 0.04 % IA/g
same,^177Lu activity in Bone,[7],0.13 ± 0.01 % IA/g
same,^177Lu activity in Heart,[7],0.13 ± 0.02 % IA/g
same,^177Lu activity in Kidneys,[7],0.95 ± 0.05 % IA/g
same,^177Lu activity in Large Int.,[7],3.18 ± 0.52 % IA/g
same,^177Lu activity in Liver,[7],0.39 ± 0.04 % IA/g
same,^177Lu activity in Lungs,[7],0.37 ± 0.03 % IA/g
same,^177Lu activity in Muscle,[7],0.19 ± 0.04 % IA/g
same,^177Lu activity in Small Int.,[7],0.47 ± 0.16 % IA/g
same,^177Lu activity in Spleen,[7],0.33 ± 0.03 % IA/g
same,^177Lu activity in Stomach,[7],0.21 ± 0.07 % IA/g
same,^177Lu activity in Tumor,[7],4.95 ± 0.34 % IA/g
